Measurements reported in PubChem BioAssay (NCI).
Values joined by “and” are separate entries in the source; they are usually repeats but may differ in a detail not shown here. Identical values can stand only once.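 Values below derive from 48-hour exposures of cells grown in 96-well plates, with endpoints linearly interpolated between the two concentrations bracketing the appropriate inhibition level. GI50 marks 50% less growth. TGI: concentration producing complete growth inhibition.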

Tests used:
Experiment in all cases: NCI anticancer screen, dose series, 48 h
[1] = system: 786-0 renal
[2] = system: A498 renal
[3] = system: A549 NSCLC
[4] = system: ACHN renal
[5] = system: BT-549 breast
[6] = system: CCRF-CEM leukemia
[7] = system: DU-145 prostate
[8] = system: EKVX NSCLC
[9] = system: HCC-2998 colon
[10] = system: HCT-116 colon
[11] = system: HCT-15 colon
[12] = system: HL-60(TB) leukemia
[13] = system: HOP-62 NSCLC
[14] = system: HOP-92 NSCLC
[15] = system: HS 578T breast
[16] = system: HT29 colon
[17] = system: IGROV1 ovarian
[18] = system: K-562 leukemia
[19] = system: KM12 colon
[20] = system: LOX IMVI melanoma
[21] = system: M14 melanoma
[22] = system: MALME-3M melanoma
[23] = system: MCF7 breast
[24] = system: MDA-MB-231 breast
[25] = system: MDA-MB-435
[26] = system: MDA-N
[27] = system: MOLT-4 leukemia
[28] = system: NCI-H226 lung
[29] = system: NCI-H23 lung
[30] = system: NCI-H460 lung
[31] = system: NCI-H522 lung
[32] = system: NCI/ADR-RES ovarian
[33] = system: OVCAR-3 ovarian
[34] = system: OVCAR-4 ovarian
[35] = system: OVCAR-5 ovarian
[36] = system: OVCAR-8 ovarian
[37] = system: PC-3 prostate
[38] = system: RPMI-8226 leukemia
[39] = system: RXF 393 renal
[40] = system: SF-268 CNS
[41] = system: SF-295 CNS
[42] = system: SF-539 CNS
[43] = system: SK-MEL-28 melanoma
[44] = system: SK-MEL-5 melanoma
[45] = system: SK-OV-3 ovarian
[46] = system: SN12C renal
[47] = system: SNB-19 CNS
[48] = system: SNB-75 CNS
[49] = system: SR leukemia
[50] = system: SW-620 colon
[51] = system: T-47D breast
[52] = system: TK-10 renal
[53] = system: U251 CNS
[54] = system: UACC-257 melanoma
[55] = system: UACC-62 melanoma
[56] = system: UO-31 renal
[57] = system: CAKI-1 renal
[58] = system: COLO 205 colon
[59] = system: SK-MEL-2 melanoma

O=C(Nn1c(-c2ccccc2)nc2ccccc2c1=O)c1ccc(Cl)cc1
TGI [1]: > 100 µM | TGI [2]: > 100 µM | TGI [3]: > 100 µM | TGI [4]: > 100 µM | TGI [5]: > 100 µM | TGI [6]: > 100 µM | TGI [7]: > 100 µM | TGI [8]: > 100 µM | TGI [9]: > 100 µM | TGI [10]: > 100 µM | TGI [11]: > 100 µM | TGI [12]: > 100 µM | TGI [13]: > 100 µM | TGI [14]: > 100 µM | TGI [15]: > 100 µM | TGI [16]: > 100 µM | TGI [17]: > 100 µM | TGI [18]: > 100 µM | TGI [19]: > 100 µM | TGI [20]: > 100 µM | TGI [21]: > 100 µM | TGI [22]: > 100 µM | TGI [23]: > 100 µM | TGI [24]: > 100 µM | TGI [25]: > 100 µM | TGI [26]: > 100 µM | TGI [27]: > 100 µM | TGI [28]: > 100 µM | TGI [29]: > 100 µM | TGI [30]: > 100 µM | TGI [31]: > 100 µM | TGI [32]: > 100 µM | TGI [33]: > 100 µM | TGI [34]: > 100 µM | TGI [35]: > 100 µM | TGI [36]: > 100 µM | TGI [37]: > 100 µM | TGI [38]: > 100 µM | TGI [39]: > 100 µM | TGI [40]: > 100 µM | TGI [41]: > 100 µM | TGI [42]: > 100 µM | TGI [43]: > 100 µM | TGI [44]: > 100 µM | TGI [45]: > 100 µM | TGI [46]: > 100 µM | TGI [47]: > 100 µM | TGI [48]: > 100 µM | TGI [49]: > 100 µM | TGI [50]: > 100 µM | TGI [51]: > 100 µM | TGI [52]: > 100 µM | TGI [53]: > 100 µM | TGI [54]: > 100 µM | TGI [55]: > 100 µM | TGI [56]: > 100 µM

CC(=O)O[C@H]1CC2C(C3CC[C@H](C(C)CCC(=O)O)[C@]31C)[C@H](OC(C)=O)C[C@@H]1CC3(CC[C@]21C)OOC1(CCC(C)CC1)OO3 (some centres not stated)
GI50 [1]: 7.66 µM and 1.81 µM | TGI [1]: 20.3 µM and 3.81 µM | TGI [2]: 28.6 µM and 29.8 µM | TGI [3]: 13.4 µM and 3.86 µM | TGI [4]: 15.8 µM and 9.72 µM | TGI [5]: 15.1 µM and 7.14 µM | GI50 [57]: 6.75 µM and 2.23 µM | TGI [57]: 19.1 µM and 6.49 µM | TGI [6]: 5.26 µM and 4.09 µM | TGI [58]: 8.21 µM and 4.4 µM | TGI [7]: 18 µM and 13.5 µM | TGI [8]: 4.9 µM and 2.9 µM | GI50 [9]: 8.43 µM and 2.73 µM | TGI [9]: 21.3 µM and 6.48 µM | TGI [10]: 13.9 µM and 5.9 µM | TGI [11]: 13.9 µM and 7.4 µM | TGI [12]: 11.2 µM and 4.41 µM | TGI [13]: 7.39 µM and 3.49 µM | GI50 [14]: 10.1 µM and 2.34 µM | TGI [14]: 23.2 µM and 5.95 µM | TGI [15]: 13.8 µM and 4.77 µM | TGI [16]: 12.5 µM and 10.4 µM | TGI [17]: 4.64 µM and 2.76 µM | TGI [18]: 16.8 µM and 6.21 µM | GI50 [19]: 5.73 µM and 2.31 µM | TGI [19]: 19.4 µM and 6.98 µM | TGI [21]: 19.3 µM and 10.9 µM | GI50 [22]: 12.5 µM and 2.73 µM | TGI [22]: 28.3 µM and 8.04 µM | TGI [23]: 30.4 µM and 38.1 µM | GI50 [24]: 9.81 µM and 2.79 µM | TGI [24]: 29.2 µM and 7.65 µM | TGI [25]: 18.7 µM and 7.76 µM | TGI [26]: 19.9 µM and 15 µM | TGI [27]: 10.6 µM and 3.79 µM | GI50 [28]: 4.56 µM and 2.11 µM | TGI [28]: 22.8 µM and 5.34 µM | TGI [29]: 15.8 µM and 5.43 µM | TGI [30]: 16.7 µM and 7.64 µM | TGI [31]: 12.3 µM and 3.48 µM | GI50 [32]: 4.88 µM and 2.02 µM | TGI [32]: 18.3 µM and 4.53 µM | GI50 [33]: 4.65 µM and 2.13 µM | TGI [33]: 16.4 µM and 5.44 µM | TGI [34]: 12.2 µM and 5.77 µM | GI50 [35]: 10.6 µM and 4.54 µM | TGI [35]: 22.7 µM and 16 µM | TGI [36]: 14.1 µM and 5.66 µM | TGI [37]: 17.2 µM and 14.2 µM | TGI [38]: 6.9 µM and 4.79 µM | TGI [39]: 27.9 µM and 23.9 µM | GI50 [40]: 6.18 µM and 2.11 µM | TGI [40]: 22.7 µM and 5.2 µM | GI50 [41]: 7.46 µM and 2.25 µM | TGI [41]: 19.8 µM and 5.53 µM | GI50 [42]: 8.15 µM and 1.94 µM | TGI [42]: 20.6 µM and 3.86 µM | GI50 [59]: 10.7 µM and 2.02 µM | TGI [59]: 27.2 µM and 5 µM | TGI [43]: 11.8 µM and 13.2 µM | GI50 [44]: 7.2 µM and 3.39 µM | TGI [44]: 20.1 µM and 12.5 µM | GI50 [45]: 10.6 µM and 3.14 µM | TGI [45]: 22.4 µM and 10.7 µM | TGI [46]: 18.3 µM and 9.27 µM | GI50 [47]: 7.57 µM and 3.57 µM | TGI [47]: 20.1 µM and 14.7 µM | TGI [48]: 6.81 µM | TGI [49]: 3.82 µM and 3.94 µM | GI50 [50]: 7.42 µM and 3.55 µM | TGI [50]: 22.2 µM and 16 µM | TGI [51]: 14.1 µM and 8.75 µM | GI50 [52]: 18.6 µM and 3.08 µM | TGI [52]: 33 µM and 9.19 µM | TGI [53]: 17.2 µM and 3.71 µM | TGI [54]: 24.8 µM and 24.3 µM | TGI [56]: 7.91 µM and 3 µM

O=C1c2ccccc2C(=O)c2c(NC3CCCCC3)ccc(Nc3ccc(S(=O)(=O)O)cc3)c21
TGI [1]: > 100 µM | TGI [2]: > 100 µM | TGI [3]: > 100 µM | TGI [4]: > 100 µM | TGI [5]: > 100 µM | TGI [57]: > 100 µM | TGI [6]: > 100 µM | TGI [58]: 53.1 µM | TGI [7]: > 100 µM | TGI [8]: 64.4 µM | TGI [9]: 71.1 µM | TGI [10]: > 100 µM | TGI [11]: > 100 µM | TGI [12]: 99.8 µM | TGI [13]: > 100 µM | TGI [14]: > 100 µM | TGI [15]: > 100 µM | TGI [16]: > 100 µM | TGI [17]: > 100 µM | TGI [18]: > 100 µM | TGI [19]: > 100 µM | TGI [20]: > 100 µM | TGI [21]: > 100 µM | TGI [22]: 58.7 µM | TGI [23]: 86.8 µM | TGI [24]: 69.9 µM | TGI [25]: > 100 µM | TGI [26]: > 100 µM | TGI [27]: > 100 µM | TGI [28]: > 100 µM | TGI [29]: > 100 µM | TGI [30]: > 100 µM | TGI [31]: 52.5 µM | TGI [32]: > 100 µM | TGI [33]: > 100 µM | TGI [34]: > 100 µM | TGI [35]: > 100 µM | TGI [36]: > 100 µM | TGI [37]: 83 µM | TGI [38]: > 100 µM | TGI [39]: > 100 µM | TGI [40]: > 100 µM | TGI [41]: > 100 µM | TGI [42]: > 100 µM | TGI [59]: 99.8 µM | TGI [43]: > 100 µM | TGI [44]: > 100 µM | TGI [45]: > 100 µM | TGI [46]: 60.5 µM | TGI [47]: > 100 µM | TGI [48]: > 100 µM | TGI [49]: > 100 µM | TGI [50]: > 100 µM | TGI [51]: > 100 µM | TGI [52]: > 100 µM | TGI [53]: 88.7 µM | TGI [54]: 63.7 µM | TGI [55]: > 100 µM | TGI [56]: > 100 µM
